Results reported in a melting point compilation (Tetko et al.; mined from patent text by program, amines drawn as free bases though some values may be those of a salt).

Structure (SMILES)	melting point [°C]
O=C(Nc1cccc(S(=O)(=O)NC2CC2)c1)c1cnn2c(C(F)(F)F)cc(-c3ccc(Cl)c(Cl)c3)nc12	248
CCC1(CCCCN2CCc3sccc3C2)C(=O)Nc2cc(F)c(Cl)cc21 (centres undefined)	155 to 157
CC1(C)CCC(C)(C)c2nc3c(nc21)CCc1c(-c2ccc(C(=O)O)cc2)nn(Cc2cccnc2)c1-3	250 to 252
O=Cc1cc([N+](=O)[O-])ccc1-c1ccccc1	79.5
COC(=O)N1CCC(n2c(=O)[nH]c3cc(Cl)ccc32)C(C)C1 (centres undefined)	196
CSc1nc2ccnn2c(OCc2ccccc2)c1C#N	194
ON=Cc1cn2c(n1)COc1ccccc1-2	232 to 233
Cn1ccnc1Sc1c(N)cccc1Cl	123 to 124
Cc1[nH]c(=O)c(C#N)cc1-c1ccc2ncc(Cl)n2c1	> 300
COc1ccc(C2CCOCC2)c2sc(-c3ncc[nH]3)nc12	220 to 224
COc1cccc(CNc2nc(NC[C@@H](C)O)nc3c2ncn3C(C)C)c1O	100 to 103
Cn1c(=O)ccc2cnc(N)nc21	237 to 253
COc1ccc(Cl)cc1C(=O)CCCCCl	52 to 54
CCOC(=O)C1=C[C@@H](OC(CC)CC)[C@@H](NC(C)=O)[C@H](N=[N+]=[N-])[C@@H]1OS(C)(=O)=O	96 to 98
Fc1ccc(Nc2ncnc3ccc(-n4cncn4)cc23)c(F)c1	> 250
CCCCCCCCCCCCCCCCCC(=O)N1C(CCCCCCCCCCCCCCCCC)NC(=O)CC1C(=O)O (centres undefined)	107 to 111
CCNC(=O)C1=CSC(Cl)N1[Si](C)(C)C (centres undefined)	101 to 103
CC(C)(C)c1cc(C(c2ccccc2)N2CCCCC2)c(O)c(C(C)(C)C)c1 (centres undefined)	140 to 141
CC(C)C[C@H](NC(=O)C(S)[C@@H](N)Cc1ccccc1)C(=O)O (some centres undefined)	96 to 105
O=C(O)c1ccc2c(Br)n[nH]c2c1	> 250

Structure (SMILES)	melting point [°C]
COCc1cc(-c2ncn(-c3cccc(Oc4ccccc4)c3)c2C)on1	83
Cc1c(SCCN(C)Cc2ccccc2)ccnc1CSc1nc2ccccc2[nH]1	110 to 112
CCCCCN(CCC12CC3CC(CC(C3)C1)C2)C(=O)NCc1cccnc1	88.5 to 102
O=C(O)CCCc1ccc2c(c1)CCC2	57 to 58
CC(=O)NCC1CN(c2ccc(N3CCC(O)C(C)(C)C3)c(F)c2)C(=O)O1 (centres undefined)	70 to 72
Cc1c(C)c2ccc(OCc3ccccc3)cc2oc1=O	131 to 135
CCCCCCCCCCOc1cc(OCCCCCCc2cccc(OCc3ccccc3)c2OCc2ccccc2)cc(C(=O)OC)c1	45 to 46
O=C(NCCO)c1ccc(-c2cccc3cc(Cc4cccc(C(F)(F)F)c4)sc23)nc1	160 to 161
CCCCN(CCCC)c1ccc(C=Cc2ccc(C(C#N)=c3ccc(=C(C#N)C#N)cc3)s2)c(OC)c1	211 to 214
CCOC(=O)C(=O)Nc1ccc(NS(C)(=O)=O)cc1	136 to 139
Cn1nc(-c2cnc3[nH]cc(C(=O)NC4CCS(=O)(=O)C4)c3n2)c2ccc(Cl)cc21 (centres undefined)	383 to 385
CCC(CN1C(=O)c2ccccc2C1=O)N1CCC(c2noc3cc(F)ccc23)CC1 (centres undefined)	86 to 88
CC(=O)O[C@H]1C[C@@H](n2cnc3c(=O)[nH]cnc32)[C@H](O)[C@@H]1O (racemic)	240 to 242
C=CCNC(=O)C1C=C(O)c2cc(Cl)ccc2O1 (centres undefined)	129 to 130
N#CSc1ccc(O)cc1Br	91 to 92
CC1(C)OC(C=Cc2cc(Cl)cc(Cl)c2)=CC1=O	129 to 131
CN(CCc1ccc([N+](=O)[O-])cc1)C1CCN(c2ccc([N+](=O)[O-])cc2)CC1	97 to 98
CCn1c(=O)c2[nH]c(/C=C/c3cc(C)c(OC)cc3C)nc2n(CC)c1=O	> 280
CCC(=O)N1C2CCC1CN(Cc1cc3ccccc3o1)C2	88 to 90
